Data on 21 compounds can be found in patent publication US20140228214A1, “COMPOSITIONS COMPRISING A STREPTOMYCES-BASED BIOLOGICAL CONTROL AGENT AND A FUNGICIDE” (BAYER CROPSCIENCE LP, priority 2013, published 2014).

Where two headings read alike, the source gives them in different places.

One experiment concerns Alternaria solani. The experiment in a line: Alternaria test (tomatoes)/preventive, evaluated 3 days after the inoculation. The format is in vivo.
For another experiment, the system named is Phytophthora infestans. In kind it is in vivo.
The subject of the next experiment is Sphaerotheca fuliginea. Kind of experiment: Sphaerotheca test (cucumbers)/preventive, evaluated 7 days after the inoculation. The format is in vivo.
The next experiment has as its system Venturia inaequalis. Kind of experiment: Venturia test (apples)/preventive, evaluated 10 days after the inoculation.
Another experiment concerns Botrytis cinerea. The experiment in a line: Botrytis test (beans)/preventive, size of the lesions 2 days after the inoculation. The conditions noted are these: Table 17.
For the next experiment, the system named is Puccinia triticina. Kind of experiment: Puccinia triticina-test (wheat)/preventive, evaluated 8 days after the inoculation. In kind it is in vivo.
Another experiment relates to Pyrenophora teres. The experiment in a line: Pyrenophora teres-test (barley)/preventive, evaluated 8 days after the inoculation. The format is in vivo.
For experiment [1], the system named is Blumeria graminis fsp. hordei. The experiment in a line: Blumeria test (barley)/preventive, evaluated 7 days after the inoculation. The format is in vivo.
The test system of another experiment is Septoria tritici. The experiment in a line: Septoria tritici-test (wheat)/preventive, evaluated 21 days after the inoculation. The format is in vivo.

Procedure for Botrytis cinerea: After the spray coating has dried on, 2 small pieces of agar covered with growth of Botrytis cinerea are placed on each leaf. The inoculated plants are placed in a darkened chamber at 20° C. and a relative atmospheric humidity of 100%.
2 days after the inoculation, the size of the lesions on the leaves is evaluated.
Procedure for Venturia inaequalis: After the spray coating has dried on, the plants are inoculated with an aqueous conidia suspension of the causal agent of apple scab (Venturia inaequalis) and then remain for 1 day in an incubation cabinet at approximately 20° C. and a relative atmospheric humidity of 100%. The plants are then placed in a greenhouse at approximately 21° C. and a relative atmospheric humidity of approximately 90%.
The test is evaluated 10 days after the inoculation.

Take prothioconazole [F41]: the “Efficacy in % found” value in the experiment on Alternaria solani (Table 12, 2 ppm a.i.) came to 0%; in the experiment with Phytophthora infestans (Table 19, 100 ppm a.i.), 45%; in the experiment with Sphaerotheca fuliginea (Table 29, 1 ppm a.i.), 43%; with Venturia inaequalis (Table 31, 1 ppm a.i.), 0%.
Turning to fenamidone [F114], the “Efficacy in % found” value is 62% with Alternaria solani (Table 13, 50 ppm a.i.); 41% in the experiment with Phytophthora infestans (Table 20, 1 ppm a.i.); 21% with Sphaerotheca fuliginea (Table 28, 100 ppm a.i.); 0% with Venturia inaequalis (Table 32, 50 ppm a.i.).
In the case of mancozeb [F174], the “Efficacy in % found” value worked out at 0% in the experiment on Phytophthora infestans (Table 21, 20 ppm a.i.); 0% in the experiment on Sphaerotheca fuliginea (Table 29, 20 ppm a.i.); 0% in the experiment on Venturia inaequalis (Table 33, 10 ppm a.i.).
Consider fludioxonil [F248], for which the “Efficacy in % found” value with Sphaerotheca fuliginea (Table 30, 100 ppm a.i.) is on record as 30%; with Venturia inaequalis (Table 31, 50 ppm a.i.), 0%; in the experiment on Botrytis cinerea (2.5 ppm a.i.), 26%.
With phosphorous acid and its salts [F298], the “Efficacy in % found” value is 76% in the experiment with Phytophthora infestans (Table 20, 500 ppm a.i.) and 0% in the experiment on Venturia inaequalis (Table 32, 50 ppm a.i.).
As to `Cc1nn(C)c(F)c1C(=O)Nc1ccccc1C(C)CC(C)C` (stereo not shown) [F84, penflufen], the “Efficacy in % found” value worked out at 8% in the experiment on Phytophthora infestans (Table 19, 100 ppm a.i.); 67% in the experiment on Puccinia triticina (Table 22, 31.25 ppm a.i.); 70% in the experiment with Pyrenophora teres (Table 25, 62.5 ppm a.i.); 60% in the experiment with Pyrenophora teres (Table 25, 125 ppm a.i.); 0% in the experiment on Sphaerotheca fuliginea (Table 29, 0.5 ppm a.i.); 0% with Venturia inaequalis (Table 31, 0.5 ppm a.i.).
In the case of `C#CCOc1ccc(CCNC(=O)C(OCC#C)c2ccc(Cl)cc2)cc1OC` (stereo not shown) [F206, mandipropamid], the “Efficacy in % found” value in the experiment with Phytophthora infestans (Table 20, 0.25 ppm a.i.) is given as 47%; in the experiment on Sphaerotheca fuliginea (Table 28, 100 ppm a.i.) it was 13%.
In the case of `O=C(NCc1ncc(C(F)(F)F)cc1Cl)c1c(Cl)cccc1Cl` [F143, fluopicolide], the “Efficacy in % found” value amounted to 21% with Phytophthora infestans (Table 20, 5 ppm a.i.) and 0% in the experiment with Venturia inaequalis (Table 32, 50 ppm a.i.).
Turning to tebuconazole [F47], the “Efficacy in % found” value with Alternaria solani (Table 12, 2 ppm a.i.) is 35%; in experiment [1] (Table 16, 31.25 ppm a.i.), 78%; in the experiment on Phytophthora infestans (Table 19, 100 ppm a.i.), 15%; in the experiment on Puccinia triticina (Table 23, 31.25 ppm a.i.) it was 30%; in the experiment on Puccinia triticina (Table 23, 62.5 ppm a.i.) it was 60%; with Septoria tritici (Table 27, 125 ppm a.i.) it was 57%. The “Efficacy in % found” value in the experiment with Venturia inaequalis (Table 31, 1 ppm a.i.) worked out at 0%.
Regarding `Cn1cc(C(=O)Nc2ccccc2-c2cc(F)c(F)c(F)c2)c(C(F)F)n1` [F72, fluxapyroxad], the “Efficacy in % found” value in the experiment with Alternaria solani (Table 12, 0.5 ppm a.i.) was determined as 45%; in experiment [1] (Table 15, 31.25 ppm a.i.), 0%; in the experiment on Phytophthora infestans (Table 19, 100 ppm a.i.), 0%; in the experiment with Puccinia triticina (Table 22, 15.625 ppm a.i.), 22%; in the experiment on Puccinia triticina (Table 22, 31.25 ppm a.i.) it was 22%; with Pyrenophora teres (Table 25, 15.625 ppm a.i.), 80%. Further, the “Efficacy in % found” value with Pyrenophora teres (Table 25, 31.25 ppm a.i.) is 90%; in the experiment with Septoria tritici (Table 26, 31.25 ppm a.i.), 13%; in the experiment on Venturia inaequalis (Table 31, 0.25 ppm a.i.), 0%.
For the compound `COCC(=O)N(c1c(C)cccc1C)[C@H](C)C(=O)OC` [F242, metalaxyl-M (mefenoxam)], the “Efficacy in % found” value is 13% with Sphaerotheca fuliginea (Table 28, 100 ppm a.i.) and 0% with Venturia inaequalis (Table 32, 50 ppm a.i.).
As to chlorothalonil [F155], the “Efficacy in % found” value in the experiment with Phytophthora infestans (Table 21, 20 ppm a.i.) stood at 0%; in the experiment on Pyrenophora teres (Table 24, 250 ppm a.i.) it was 50%; with Septoria tritici (Table 27, 125 ppm a.i.) it was 57%; with Venturia inaequalis (Table 33, 10 ppm a.i.), 4%.
In the case of fosetyl-aluminium [F281], the “Efficacy in % found” value was determined as 15% in the experiment on Alternaria solani (Table 13, 50 ppm a.i.); 55% in the experiment on Phytophthora infestans (Table 20, 50 ppm a.i.); 13% with Sphaerotheca fuliginea (Table 28, 100 ppm a.i.); 0% in the experiment on Venturia inaequalis (Table 32, 50 ppm a.i.).
spiroxamine [F46]: the “Efficacy in % found” value was 46% with Alternaria solani (Table 14, 50 ppm a.i.); 11% in experiment [1] (Table 16, 125 ppm a.i.); 30% with Sphaerotheca fuliginea (Table 30, 100 ppm a.i.); 0% in the experiment with Venturia inaequalis (Table 31, 50 ppm a.i.); 14% in the experiment with Botrytis cinerea (100 ppm a.i.).
For the compound propineb [F180], the “Efficacy in % found” value with Phytophthora infestans (Table 21, 20 ppm a.i.) is 8%; with Sphaerotheca fuliginea (Table 29, 20 ppm a.i.), 0%; in the experiment on Venturia inaequalis (Table 33, 10 ppm a.i.), 81%.
Consider fenhexamid [F16], for which the “Efficacy in % found” value turned out to be 50% in the experiment on Alternaria solani (Table 14, 50 ppm a.i.); 0% with Phytophthora infestans (TABLE 17 (Phytophthora), 100 ppm a.i.); 0% with Sphaerotheca fuliginea (Table 30, 100 ppm a.i.); 0% in the experiment with Venturia inaequalis (Table 31, 25 ppm a.i.).
Take `CO/C=C(/C(=O)OC)c1ccccc1Oc1cc(Oc2ccccc2C#N)ncn1` [F107, azoxystrobin]: the “Efficacy in % found” value in the experiment with Alternaria solani (Table 13, 2 ppm a.i.) was found to be 41%; in [1] (Table 15, 31.25 ppm a.i.), 10%; with Puccinia triticina (Table 22, 7.8125 ppm a.i.) it was 67%; in the experiment with Pyrenophora teres (Table 25, 15.625 ppm a.i.) it was 60%; with Pyrenophora teres (Table 25, 31.25 ppm a.i.), 90%; with Septoria tritici (Table 26, 15.625 ppm a.i.), 13%. For the same compound, the “Efficacy in % found” value with Septoria tritici (Table 26, 31.25 ppm a.i.) is recorded as 50%; in the experiment with Sphaerotheca fuliginea (Table 28, 0.5 ppm a.i.), 37%; in the experiment on Venturia inaequalis (Table 32, 0.5 ppm a.i.), 84%.
Regarding `N#Cc1ccccc1NC(=O)c1snc(Cl)c1Cl` [F187, isotianil], the “Efficacy in % found” value in the experiment on Alternaria solani (Table 14, 50 ppm a.i.) amounted to 18%; in the experiment on Septoria tritici (Table 27, 250 ppm a.i.) it was 29%; in the experiment with Septoria tritici (Table 27, 500 ppm a.i.), 29%; in the experiment with Sphaerotheca fuliginea (Table 30, 100 ppm a.i.), 20%; in the experiment on Venturia inaequalis (Table 31, 50 ppm a.i.), 0%; in the experiment on Botrytis cinerea (125 ppm a.i.), 40%.
With flutolanil [F71], the “Efficacy in % found” value in the experiment with Sphaerotheca fuliginea (Table 30, 100 ppm a.i.) is given as 20%; in the experiment on Venturia inaequalis (Table 31, 50 ppm a.i.), 0%; in the experiment on Botrytis cinerea (250 ppm a.i.) it was 30%.
For propamocarb hydrochloride [F220], the “Efficacy in % found” value is given as 12% with Alternaria solani (Table 14, 250 ppm a.i.); 7% in the experiment on Phytophthora infestans (TABLE 17 (Phytophthora), 500 ppm a.i.); 10% with Sphaerotheca fuliginea (Table 30, 500 ppm a.i.); 0% with Venturia inaequalis (Table 31, 250 ppm a.i.).
Take difenoconazole [F7]: the “Efficacy in % found” value in the experiment with Alternaria solani (Table 12, 2 ppm a.i.) is 30%; in experiment [1] (Table 16, 62.5 ppm a.i.), 44%; in experiment [1] (Table 16, 125 ppm a.i.), 67%; in the experiment on Phytophthora infestans (Table 19, 100 ppm a.i.), 0%; in the experiment on Puccinia triticina (Table 23, 31.25 ppm a.i.) it was 30%; in the experiment on Puccinia triticina (Table 23, 62.5 ppm a.i.) it was 60%. Further, the “Efficacy in % found” value in the experiment on Sphaerotheca fuliginea (Table 29, 1 ppm a.i.) was found to be 0%; with Venturia inaequalis (Table 31, 1 ppm a.i.), 38%.
